Test results: patent US20040234610A1, “Medical device and method for inhalation of aerosolized drug with heliox” (priority 2001, published 2004)
Where “and” joins values, the source holds several entries; their conditions need not be identical. Equal values may be shown once.

Tests used:
[1] = system: adult patients with severe acute exacerbation of asthma; experiment: Same randomized study: vital signs, pulse oximetry, hospital admissions; format: in vivo, human; conditions: for % change HR post neb 1 / % change HR post neb 2 / % change HR post neb 3: mean ± SD; for Hospital admission rate: P=0.81
Source text: The heliox delivery system consisted of a facemask connected to a Y-piece with the nebulizer (Airlife™ Misty-Neb™ Nebulizer) on one limb and a non-rebreather bag on the other limb (as shown in FIG. 1). Heliox flow to the nebulizer was set at 10 liters/minute (via an oxygen calibrated flow meter thus equivalent to 18 L/min Heliox flow). A separate flow of 10 liters/minute of heliox (via an oxygen calibrated flow meter thus equivalent to 18 L/min Heliox flow) was delivered to the non-rebreather bag. […] Each treatment continued until the nebulizer was dry—a period of approximately ten minutes, followed by a fifteen minute washout period. The total time for the study was approximately 90 minutes. Corticosteroid therapy for asthma exacerbations was directed by the emergency room physicians, who were not directly involved in the study.
Demographic data, chronic asthma medications, emergency room corticosteroid administration, vital signs (heart rate, mean arterial pressure, respiratory rate), oxygen saturation by pulse oximetry, emergency room length of stay and hospital admissions from the emergency room were recorded for all patients. Data are expressed as mean±SD when normally distributed and median (interquartile range) when not normally distributed. Interval data were compared using a two-tailed Student's t test or Mann Whitney U test according to normality of distribution, categorical data were compared using Chi square or Fisher Exact test when appropriate. […] The Student-Newman-Keuls test was used to compare differences between heliox and control groups after each nebulization treatment when appropriate. […] A 25% difference in percent change in FEV1 between the control and heliox groups was considered clinically important. Using a standard deviation of 28% (based on preliminary work), an a error of 0.05 and a β error of 0.20, it was estimated that a total of 42 patients (21 in each group) would be needed to avoid a type II error. […] In this situation, a P value of <0.0167 was considered to indicate statistical significance.

[2] = Nebulized particle size distribution by Anderson Cascade Impactor, RES-Q-Neb (T and Y design) vs HOPE nebulizer; format: physicochemical
Procedure: A study was conducted to compare the performance of two embodiments of the heliox nebulization system described herein (called the RES-Q-Neb™ Nebulizer) with a commercially available nebulizer (HOPE™, B&B Medical Technologies, Inc., Orangevale, Calif., USA) that is driven by air.
Measurements were done using an Anderson Cascade Impactor (ACI) operated at an air flow rate of 28.3 L/min. The nebulizers were connected one at a time to the same tee piece and collar. The ACI consisted of eight stages, a backup filter, and an inlet (USP throat).
Gas flows through the nebulizers and impactor were controlled with rotameters, which were set with the DryCal Flow Calubrator (BIOS International Co., Pomton Plains, N.J.).
Heliox (80% helium, 20% oxygen) at 18 L/min was used to drive the RES-Q-Neb Nebulizer and another 18 L/min of the heliox was introduced into the system at the reservoir bag side port. […] The HOPE nebulizer was driven with compressed air at 10 L/min (as directed in its included label and instructions), and 18 L/min of heliox was introduced into the system at a side port, as shown in FIG. 10.
A pre-running time was used for each test to stabilize the generation of aerosol. The RES-Q-Neb nebulizer was pre-run for 15 s, and the HOPE nebulizer was pre-run for 30 s. Six tests were run with the RES-Q-Neb nebulizer at the same conditions (3 with the “Y” adaptor and 3 with the “T” adaptor) and five tests were run with the HOPE nebulizer at the same conditions.
After each test, the ACI and empty nebulizers were disassembled and washed with deionized water. The wash water was collected and the amount of drug remaining or collected was determined using spectrophotometric analysis at 224 nm.
The particle sizes are expressed as 50% mass median aerodynamic diameters (MMAD).

[3] = system: asthma patients; experiment: Pilot study, albuterol nebulized with heliox vs oxygen through open mouthpiece and T-piece system, spirometry; format: in vivo, human; conditions: open mouthpiece and T-piece adapter system
Procedure: A pilot study was conducted using an open system, including a mouthpiece and T-piece adapter ([…], Allegiance Healthcare Corp., McGaw Park, Ill.), to nebulize albuterol.

[4] = HOPE nebulizer, compressed air 10 L/min nebulizer + heliox 18 L/min side port
[5] = HOPE nebulizer, compressed air 10 L/min nebulizer + heliox 18 L/min side port, mean of 5 tests
[6] = HOPE nebulizer, compressed air 10 L/min nebulizer + heliox 18 L/min side port, single tests, listed as Albuterol sulfate
[7] = RES-Q-Neb T design, heliox 18 L/min nebulizer + 18 L/min side port
[8] = RES-Q-Neb T design, heliox 18 L/min nebulizer + 18 L/min side port, mean of 3 tests
[9] = RES-Q-Neb T design, heliox 18 L/min nebulizer + 18 L/min side port, single tests, listed as Albuterol sulfate
[10] = RES-Q-Neb Y design, heliox 18 L/min nebulizer + 18 L/min side port (18-18 lpm)
[11] = RES-Q-Neb Y design, heliox 18 L/min nebulizer + 18 L/min side port, mean of 3 tests
[12] = RES-Q-Neb Y design, heliox 18 L/min nebulizer + 18 L/min side port, single tests, listed as Albuterol sulfate

Question: What does the source list for `CC(C)(C)NCC(O)c1ccc(O)c(CO)c1` (centres unmarked) [albuterol]?
Answer: differences in other vital signs or pulse oximetry, heliox vs control ([1]; MAP, RR, SpO2, at any point during the study): no other significant differences in any vital signs or in pulse oximetry between the groups; % change HR post neb 1 ([1]; control (oxygen)): −8.7 ± 7.4%; % change HR post neb 2 ([1]; control (oxygen)): −4.6 ± 8.7%; % change HR post neb 3 ([1]; control (oxygen)): −2.7 ± 12.7%; Hospital admission rate ([1]; control group (oxygen)): 6 of 22; Hospital admission rate ([1]; heliox group): 6 of 23; % change HR post neb 1 ([1]; heliox, P 0.01 vs control): −0.9 ± 7.8%; % change HR post neb 3 ([1]; heliox, P 0.01 vs control): 5.6 ± 12.0%; % change HR post neb 2 ([1]; heliox, P 0.08 vs control): 1.0 ± 11.3%; 0.7 ≦ Mean Fraction < 5.8 μm [2, 4]: 0.503; Mean Fraction < 0.7 μm [2, 4]: 0.052; Mean Fraction at Midpoint = 1.52 μm [2, 4]: 0.227; Mean Fraction ≧ 5.8 μm [2, 4]: 0.446; Mean Fraction, Collar [2, 5]: 0.009; Mean Fraction, Filter (cut-size <0.4 micron) [2, 5]: 0.015; Mean Fraction, Stage 0 (cut-size 9 micron) [2, 5]: 0.110; Mean Fraction, Stage 1 (cut-size 5.8 micron) [2, 5]: 0.151; Mean Fraction, Stage 2 (cut-size 4.7 micron) [2, 5]: 0.044; Mean Fraction, Stage 3 (cut-size 3.3 micron) [2, 5]: 0.099; Mean Fraction, Stage 4 (cut-size 2.1 micron) [2, 5]: 0.119; Mean Fraction, Stage 5 (cut-size 1.1 micron) [2, 5]: 0.227; Mean Fraction, Stage 6 (cut-size 0.7 micron) [2, 5]: 0.014; Mean Fraction, Stage 7 (cut-size 0.4 micron) [2, 5]: 0.037; Mean Fraction, Tee Piece [2, 5]: 0.060; Mean Fraction, Throat (cut-size >9 micron) [2, 5]: 0.034; Mean Fraction, Tube [2, 5]: 0.082; Fraction, Stage 1 (cut-size 5.8 micron) [2, 6]: 0.139 and 0.164 and 0.154 and 0.138 and 0.160; Fraction, Stage 2 (cut-size 4.7 micron) [2, 6]: 0.039 and 0.047 and 0.044 and 0.045; Fraction, Stage 3 (cut-size 3.3 micron) [2, 6]: 0.088 and 0.110 and 0.109 and 0.090 and 0.099; Fraction, Tee Piece [2, 6]: 0.066 and 0.056 and 0.058 and 0.052 and 0.069; Fraction, Throat (cut-size >9 micron) [2, 6]: 0.033 and 0.037 and 0.036 and 0.030 and 0.035; Fraction, Tube [2, 6]: 0.105 and 0.077 and 0.073 and 0.081 and 0.074; 0.7 ≦ Mean Fraction < 5.8 μm [2, 7]: 0.697; Mean Fraction < 0.7 μm [2, 7]: 0.218; Mean Fraction at Midpoint = 1.52 μm [2, 7]: 0.519; Mean Fraction ≧ 5.8 μm [2, 7]: 0.086; mean output rate [2, 7]: 0.54 mL/min; Mean Fraction, Adapter [2, 8]: 0.033; Mean Fraction, Collar [2, 8]: 0.008; Mean Fraction, Filter (cut-size <0.4 micron) [2, 8]: 0.044; Mean Fraction, Stage 0 (cut-size 9 micron) [2, 8]: 0.010; Mean Fraction, Stage 1 (cut-size 5.8 micron) [2, 8]: 0.015; Mean Fraction, Stage 2 (cut-size 4.7 micron) [2, 8]: 0.005; Mean Fraction, Stage 3 (cut-size 3.3 micron) [2, 8]: 0.009; Mean Fraction, Stage 4 (cut-size 2.1 micron) [2, 8]: 0.061; Mean Fraction, Stage 5 (cut-size 1.1 micron) [2, 8]: 0.519; Mean Fraction, Stage 6 (cut-size 0.7 micron) [2, 8]: 0.103; Mean Fraction, Stage 7 (cut-size 0.4 micron) [2, 8]: 0.174; Mean Fraction, T-Piece [2, 8]: 0.017; Mean Fraction, Throat (cut-size >9 micron) [2, 8]: 0.003; Fraction, Filter (cut-size <0.4 micron) [2, 9]: 0.037 and 0.049 and 0.045; Fraction, Stage 7 (cut-size 0.4 micron) [2, 9]: 0.148 and 0.166 and 0.207; mean output rate ([2]; RES-Q-Neb Y design, heliox 18 L/min nebulizer + 18 L/min side port): 0.59 mL/min; 0.7 ≦ Mean Fraction < 5.8 μm [2, 10]: 0.657; Mean Fraction < 0.7 μm [2, 10]: 0.239; Mean Fraction at Midpoint = 1.52 μm [2, 10]: 0.422; Mean Fraction ≧ 5.8 μm [2, 10]: 0.105; Mean Fraction, Adapter [2, 11]: 0.040; Mean Fraction, Collar [2, 11]: 0.009; Mean Fraction, Filter (cut-size <0.4 micron) [2, 11]: 0.053; Mean Fraction, Stage 0 (cut-size 9 micron) [2, 11]: 0.012; Mean Fraction, Stage 1 (cut-size 5.8 micron) [2, 11]: 0.019; Mean Fraction, Stage 2 (cut-size 4.7 micron) [2, 11]: 0.007; Mean Fraction, Stage 3 (cut-size 3.3 micron) [2, 11]: 0.010; Mean Fraction, Stage 4 (cut-size 2.1 micron) [2, 11]: 0.072; Mean Fraction, Stage 5 (cut-size 1.1 micron) [2, 11]: 0.422; Mean Fraction, Stage 6 (cut-size 0.7 micron) [2, 11]: 0.146; Mean Fraction, Stage 7 (cut-size 0.4 micron) [2, 11]: 0.186; Mean Fraction, Throat (cut-size >9 micron) [2, 11]: 0.004; Mean Fraction, Y-Piece [2, 11]: 0.021; Fraction, Filter (cut-size <0.4 micron) [2, 12]: 0.056 and 0.060 and 0.043; Fraction, Stage 1 (cut-size 5.8 micron) [2, 12]: 0.014 and 0.023 and 0.020; Fraction, Stage 6 (cut-size 0.7 micron) [2, 12]: 0.148 and 0.144; Fraction, Stage 7 (cut-size 0.4 micron) [2, 12]: 0.169 and 0.180 and 0.208; Fraction, Y-Piece [2, 12]: 0.026 and 0.022 and 0.015; less particles >5.8 μm, present device/method vs HOPE nebulizer ([2]; less than HOPE): approximately 34%; greater fraction of particles ≥0.7 and <5.8 μm (breathable range), present device/method vs HOPE nebulizer ([2]; more than HOPE): approximately 20%; more particles <0.7 μm, present device/method vs HOPE nebulizer ([2]; more than HOPE): about 15%; more particles with a midpoint diameter of 1.52 μm, present device/method vs HOPE nebulizer ([2]; more than HOPE): approximately 22%; differences in spirometry between heliox and oxygen albuterol nebulization [3]: no differences in spirometry between heliox and oxygen albuterol nebulization were detected
